According to paper PMC10641236, “Influenza A virus replication has a stronger dependency on Raf/MEK/ERK signaling pathway activity than SARS-CoV-2” (Frontiers in Cellular and Infection Microbiology, 2023):
pEC50: −log10 of the molar value. Where two headings read alike, the source gives them in different places.

Assays:
[1] = test system: IAV PR8; test: Virus yield reduction assay, IAV PR8 (virus titer by RT-qPCR); assay type: cell-based, Influenza A virus, strain: A/Puerto Rico/8/1934 (H1N1); settings: 0.2% BSA; for reduction of the virus titer: Calu-3 and Caco-2 cells, 24 h
Procedure: (§1) Calu-3 and Caco-2 cells were seeded in 24-well plates (Greiner Bio-One GmbH, Frickenhausen, Germany) and grown to 90% confluence. The cells were washed once with infection medium [IMDM supplemented with 0.2% bovine serum albumin (BSA) (Carl Roth GmbH + Co. KG, Karlsruhe, Germany) and 1% penicillin–streptomycin] prior to infection with a multiplicity of infection (MOI) of 0.01 of IAV PR8 or SARS-CoV-2 for 1 h in 200 µL of infection medium per well. Afterwards, the virus inoculum was removed completely, and the cells were washed once with infection medium and then treated with 1 mL per well of different concentrations of zapnometinib in infection medium with 1% dimethyl sulfoxide (DMSO) (Merck Millipore, Burlington, MA, USA) for 24 h at 37°C, 5% CO2. Supernatants were harvested and stored at −80°C for subsequent determination of virus titer and EC50 value. Cell lysates were prepared as described in the “Preparation of cell lysates and WES™ analysis” section for WES™ analysis.
(§2) The viral titers of IAV and SARS-CoV-2 viruses were determined using a real-time one-step multiplex RT-qPCR method. Briefly, viral nucleic acid extraction was performed using a QIAamp Viral RNA Mini Kit (Qiagen, Venlo, Netherlands) according to the manufacturer’s instructions. A TaqMan-based RT-qPCR assay was carried out using a QuantiNova Pathogen kit (Qiagen, Venlo, Netherlands) with specific primers targeting the SARS-CoV-2 N gene (2019-CoV2-N1F: […], 2019-CoV2-N1R: […], 2019-CoV2-N1P [6FAM]: […] [BHQ1]) and M gene for IAV according to the WHO guidelines. The viral genome copies per mL (gc/mL) were determined based on a standard curve prepared with 10-fold serial dilutions of the target gene. For quality control, nuclease-free water was included in each set of extractions as a negative control to monitor any possible cross-contamination. Moreover, an artificial exogenous QuantiNova RNA internal control (Qiagen, Venlo, Netherlands) was included during the nucleic acid purification to monitor the RNA purification efficiency and the RT-PCR amplification. A Rotor-Gene Q™ Real-Time PCR detection system (Qiagen, Venlo, Netherlands) was used for amplification, and the data were analyzed using Q-Rex software (Qiagen, Venlo, Netherlands).
(§3) For EC50 determination, a virus yield reduction assay was performed. The virus titer in the cell culture supernatant was determined and normalized to the solvent control. The EC50 value was determined using the “log(inhibitor) vs. normalized response - Variable slope” equation in GraphPad Prism version 9.4.0.

[2] = test system: IAV PR8; assay type: cell-based; settings: 100 µM, Caco-2 cells, MOI 4, 10 h
[3] = test system: SARS-CoV-2; test: Virus yield reduction assay, SARS-CoV-2 (virus titer by RT-qPCR); assay type: cell-based; settings: for reduction of virus titer compared to solvent control: 5% FBS; for reduction of virus titer compared to solvent control / reduction of the virus titer: 24 h; for reduction of the virus titer: Calu-3 and Caco-2 cells
Procedure: as §1, §2, §3

[4] = test system: COVID-19; settings: hospitalized COVID-19 patients; ref ClinicalTrials.gov NCT04776044; cited from earlier work
[5] = test system: ERK2; test: ERK2 content in cell lysates by WES; assay type: cell-based, Homo sapiens; settings: Caco-2 and Calu-3 cell lysates, 24 h of treatment
Procedure: Cells were lysed using cold modified RIPA buffer [0.24% (w/v) tris base (Sigma-Aldrich, St. Louis, Missouri, USA), 0.88% (w/v) NaCl (Carl Roth, Karlsruhe, Germany), 0.2% (v/v) 500 mM ethylenediaminetetraacetic acid (EDTA) (Sigma-Aldrich, St. Louis, Missouri, USA), 1% (v/v) Triton X-100 (Sigma-Aldrich, St. Louis, Missouri, USA), 0.5% (w/v) sodium deoxycholate (Sigma-Aldrich, St. Louis, Missouri, USA), 0.1% (w/v) sodium dodecyl sulfate (SDS) (Carl Roth, Karlsruhe, Germany), 10% (v/v) glycerol (Carl Roth, Karlsruhe, Germany), 0.05% phenylmethylsulfonyl fluoride (PMSF) (Carl Roth, Karlsruhe, Germany), 0.01% Benzonase® Nuclease (Sigma-Aldrich, St. Louis, Missouri, USA), protease inhibitor cocktail (Roche, Basel, Switzerland), and phosphatase inhibitor cocktail (Roche, Basel, Switzerland) in water]. Determination of the protein concentration was performed using the Pierce™ BCA Protein Assay Kit (Thermo Fisher Scientific Inc., Waltham, MA, USA) according to the manufacturer’s instructions. […] Ratios were calculated from the area under the curve of the respective detected signals.

[6] = test system: IAV PR8 NP; assay type: cell-based; settings: MOI 0.01, 24 h; for reduction of IAV PR8 NP (NP/ERK2 normalized to solvent control): both cell lines

O=C(O)c1ccc(F)c(F)c1Nc1ccc(I)cc1Cl [zapnometinib, 2-(2-chloro-4-iodophenylamino)-N-3,4-difluoro benzoic acid]
reduction of the virus titer ([1]; 12.5 µM): ≥ 50% | reduction of the virus titer ([1]; 25 µM): ≥ 50% | reduction of the virus titer ([1]; 100 µM): > 90% | pEC50 ([1]; Caco-2 cells, MOI 0.01, 24 h, read-out: EC50 value against IAV PR8): 5.24 | pEC50 ([1]; Calu-3 cells, MOI 0.01, 24 h, read-out: EC50 value against IAV PR8): 5.15 | pEC50 ([1]; Influenza A virus, PR8, Caco-2, 24 h, Caco-2 cells, MOI 0.01, 24 h, read-out: EC50 value against IAV PR8): 5.24 | pEC50 ([1]; Influenza A virus, PR8, Calu-3, 24 h, Calu-3 cells, MOI 0.01, 24 h, read-out: EC50 value against IAV PR8): 5.15 | pEC50 ([1]; Influenza A virus, PR8, summary for Calu-3 and Caco-2 cells, read-out: EC50 values for IAV PR8 in both cell lines): > 5.00 | Infected cells (IAV PR8 NP positive) normalized to solvent control [2]: 44.9% | localization of the IAV NP [2]: retention of the IAV NP in the nucleus | reduction of virus titer compared to solvent control ([3]; 6.25 µM, Caco-2 cells): No significant reduction | reduction of virus titer compared to solvent control ([3]; 12.5 µM, Caco-2 cells): No significant reduction | reduction of virus titer compared to solvent control ([3]; 25 µM, Caco-2 cells): > 39% | reduction of the virus titer ([3]; 25 µM, 0.2% BSA): ≥ 50% | reduction of virus titer compared to solvent control ([3]; 50 µM, Caco-2 cells): > 60% | reduction of the virus titer ([3]; 50 µM, 0.2% BSA): ≥ 50% | reduction of virus titer compared to solvent control ([3]; 75 µM, Caco-2 cells): > 94% | reduction of the virus titer ([3]; 75 µM, 0.2% BSA): > 90% | reduction of virus titer compared to solvent control ([3]; 100 µM, Caco-2 cells): > 99% | reduction of the virus titer ([3]; 100 µM, 0.2% BSA): > 90% | pEC50 ([3]; Caco-2 cells, 0.2% BSA, MOI 0.01, 24 h, read-out: EC50 value against SARS-CoV-2 (FI)): 4.64 | pEC50 ([3]; Severe acute respiratory syndrome coronavirus 2, Caco-2, 24 h, Caco-2 cells, 0.2% BSA, MOI 0.01, 24 h, read-out: EC50 value against SARS-CoV-2 (FI)): 4.64 | pEC50 ([3]; Severe acute respiratory syndrome coronavirus 2, Caco-2, Caco-2 cells, medium containing 5% FBS, MOI 0.01, treatment 1 h post-infection, titer after 24 h, read-out: EC50 value against SARS-CoV-2): 4.47 | pEC50 ([3]; Severe acute respiratory syndrome coronavirus 2, Calu-3, 24 h, Calu-3 cells, 0.2% BSA, MOI 0.01, 24 h, read-out: EC50 value against SARS-CoV-2 (FI)): 4.71 | pEC50 ([3]; Severe acute respiratory syndrome coronavirus 2, summary for Calu-3 and Caco-2 cells, 0.2% BSA, read-out: EC50 values for SARS-CoV-2 in both cell lines): ~4.70 | efficacy in terms of the primary endpoint, phase II clinical trial [4]: clinically relevant efficacy profile | safety profile, phase II clinical trial [4]: favorable safety profile | effect on ERK2 content in the cells [5]: does not affect | reduction of IAV PR8 NP (NP/ERK2 normalized to solvent control) ([6]; 12.5 µM): approximately 50% | reduction of IAV PR8 NP (NP/ERK2 normalized to solvent control) ([6]; 50 µM): > 70% | reduction of IAV PR8 NP (NP/ERK2 normalized to solvent control) ([6]; 100 µM): > 80% | lowest concentration at which IAV PR8 NP was significantly reduced compared to solvent control [6]: 0.39 µM
